For 28 compounds, solubility (mole fraction) results are on record in BigSolDB 2.1.

For orientation: solubility (mole fraction) means the moles of solute divided by all moles in the saturated solution.

`Clc1ccc(-c2c3nc(c(-c4ccc(Cl)cc4)c4ccc([nH]4)c(-c4ccc(Cl)cc4)c4nc(c(-c5ccc(Cl)cc5)c5ccc2[nH]5)C=C4)C=C3)cc1`: the solubility (mole fraction) was 1.27e-06 (in ethanol, 293.2 K); 1.63e-06 (in ethanol, 303.2 K); 1.93e-06 (in ethanol, 313.2 K); 2.25e-06 (in ethanol, 323.2 K); 2.63e-06 (in ethanol, 333.2 K).
Take `CCCCCC`: the solubility (mole fraction) is, setting by setting: (in water, 280.8 K) 3.1e-06; (in water, 295.5 K) 2.7e-06.
With `O=[N+]([O-])c1ccc(N/N=C/c2ccc[nH]2)cc1`, the solubility (mole fraction) (in water, 298.15 K) was determined as 1.73e-07.
For `Cc1ccc(-c2ncc(Cl)cc2-c2ccc(S(C)(=O)=O)cc2)cn1`, the solubility (mole fraction) was 0.0379 (in methanol, 298.2 K); 0.0605 (in propylene glycol, 298.2 K); 1.58e-05 (in water, 298.2 K).
For the compound `O=c1[nH]cc(C(F)(F)F)c(=O)[nH]1`, the solubility (mole fraction) (in water, 298.15 K) amounted to 0.00268.
For the compound `COc1ccccc1OCC(O)COC(N)=O` (centres undefined), the solubility (mole fraction) is, setting by setting: (in 1,4-dioxane, 298.15 K) 0.00331; (in PEG-400, 298.15 K) 0.0262; (in ethanol, 298.15 K) 0.00436; (in methanol, 298.15 K) 0.00425; (in propylene glycol, 298.15 K) 0.00914; (in water, 298.15 K) 0.000735.
For the compound `Clc1ccc(OCCCBr)cc1`, the solubility (mole fraction) is, setting by setting: (in ethanol, 273.15 K) 0.0219; (in ethanol, 278.15 K) 0.0281; (in ethanol, 283.15 K) 0.0366; (in ethanol, 288.15 K) 0.0488; (in ethanol, 293.15 K) 0.0658; (in ethanol, 298.15 K) 0.0933. Further, the solubility (mole fraction) (in ethanol, 303.15 K) was 0.142.
For `C[N+](C)(C)CCOP(=O)([O-])OP(=O)([O-])OC[C@H]1O[C@@H](n2ccc(N)nc2=O)[C@H](O)[C@@H]1O.[Na+]`, the solubility (mole fraction) worked out at 0.0211 (in water, 278.15 K); 0.0216 (in water, 281.15 K); 0.0224 (in water, 285.15 K); 0.0234 (in water, 289.15 K); 0.0248 (in water, 293.15 K); 0.0265 (in water, 298.15 K).
Regarding `O=C(O)c1ccccc1O`, the solubility (mole fraction) by setting is: (in 1,4-dioxane, 298.15 K) 0.261; (in PEG-300, 298.15 K) 0.493; (in ethanol, 298.15 K) 0.145; (in ethyl acetate, 298.15 K) 0.138; (in methanol, 298.15 K) 0.122; (in water, 298.15 K) 0.0003.
`CO[C@H]1O[C@H](CO)[C@@H](O)[C@H](O)[C@H]1O` registered a solubility (mole fraction) (in methanol, 293.15 K) of 0.00941; a solubility (mole fraction) (in methanol, 298.15 K) of 0.0109; a solubility (mole fraction) (in methanol, 303.15 K) of 0.0128; a solubility (mole fraction) (in methanol, 308.18 K) of 0.015; a solubility (mole fraction) (in methanol, 313.15 K) of 0.0175; a solubility (mole fraction) (in methanol, 318.15 K) of 0.02.
Turning to `CC(=O)OCC(=O)[C@@]12N=C(C)O[C@@H]1C[C@H]1[C@@H]3CCC4=CC(=O)C=C[C@]4(C)[C@H]3[C@@H](O)C[C@@]12C`, the solubility (mole fraction) (in acetone, 303.15 K) came out at 0.00721; the solubility (mole fraction) (in ethanol, 303.15 K) was 0.0024; the solubility (mole fraction) (in ethyl acetate, 303.15 K) was determined as 0.00399; the solubility (mole fraction) (in isopropanol, 303.15 K) turned out to be 0.00204.
Regarding `NCCC(=O)O`, the solubility (mole fraction) turned out to be 0.115 (in methanol, 288.15 K); 0.122 (in methanol, 293.15 K); 0.131 (in methanol, 298.15 K); 0.14 (in methanol, 303.15 K); 0.152 (in methanol, 308.15 K); 0.164 (in methanol, 313.15 K). For the same compound, the solubility (mole fraction) by setting is: (in methanol, 318.15 K) 0.173; (in methanol, 323.15 K) 0.183.
For the setting “in water, 298.15 K”, `O=c1[nH]cc(Cl)c(=O)[nH]1` had a solubility (mole fraction) of 0.000308.
Take `O=c1cc(Cl)[nH]c(=O)[nH]1`: under “in water, 298.15 K”, the solubility (mole fraction) came to 0.000603.
Take `CC1=C(/C=C/C(C)=C/C=C/C(C)=C/C=C/C=C(C)/C=C/C=C(C)/C=C/C2=C(C)CCCC2(C)C)C(C)(C)CCC1`: the solubility (mole fraction) (in 1,2-dimethoxyethane, 293.15 K) was 6.3e-05; the solubility (mole fraction) (in 1-hexene, 293.15 K) came out at 0.000187; the solubility (mole fraction) (in 2-butanone, 293.15 K) was determined as 9.1e-05; the solubility (mole fraction) (in MTBE, 293.15 K) was determined as 0.000119; the solubility (mole fraction) (in acetone, 293.15 K) is 1.4e-05; the solubility (mole fraction) (in cyclohexane, 293.15 K) stood at 0.000302. In addition, the solubility (mole fraction) by setting is: (in cyclohexanone, 293.15 K) 0.00032; (in dibutyl ether, 293.15 K) 0.000158; (in diglyme, 293.15 K) 9.6e-05; (in n-hexane, 293.15 K) 8.9e-05; (in n-octanol, 293.15 K) 2.79e-05; (in tert-amyl methyl ether, 293.15 K) 0.00018. This compound also had a solubility (mole fraction) (in toluene, 293.15 K) of 0.00109.
`O=[N+]([O-])c1ccc(N/N=C/c2ccco2)c([N+](=O)[O-])c1` returned a solubility (mole fraction) (in water, 298.15 K) of 1.4e-08.
The compound `CSCC[C@H](N)C(=O)O` showed a solubility (mole fraction) (in water, 283.15 K) of 0.00531; a solubility (mole fraction) (in water, 288.15 K) of 0.00555; a solubility (mole fraction) (in water, 293.15 K) of 0.00625; a solubility (mole fraction) (in water, 298.15 K) of 0.00681; a solubility (mole fraction) (in water, 303.15 K) of 0.00724; a solubility (mole fraction) (in water, 308.15 K) of 0.00787. The solubility (mole fraction) (in water, 313.15 K) stood at 0.00837.
Turning to `O=C1Nc2ccc(Cl)cc2C(c2ccccc2Cl)=NC1O` (centres undefined), the solubility (mole fraction) is, setting by setting: (in PEG-200, 303.2 K) 0.0958; (in water, 303.2 K) 3e-06.
`C(=N\Nc1ccccc1)/c1cccs1`: for the setting “in water, 298.15 K”, the solubility (mole fraction) stood at 5.19e-07.
Consider `CC1(C)S[C@@H]2[C@H](N)C(=O)N2[C@H]1C(=O)O`, for which the solubility (mole fraction) is 0.000132 (in water, 274.15 K); 0.000143 (in water, 278.15 K); 0.000159 (in water, 283.15 K); 0.000173 (in water, 289.15 K); 0.000183 (in water, 293.15 K); 0.000203 (in water, 298.15 K). Also, the solubility (mole fraction) (in water, 303.15 K) worked out at 0.000226.
With `O=C(O)CNCP(=O)(O)O`, the solubility (mole fraction) reads like this: (in water, 293.67 K) 0.00112; (in water, 302.65 K) 0.0014; (in water, 311.95 K) 0.00174; (in water, 317.15 K) 0.00202; (in water, 322.15 K) 0.00226; (in water, 327 K) 0.0025. The same compound came in with a solubility (mole fraction) (in water, 332.35 K) of 0.00285.
`C[C@@H]1CC[C@H]2[C@@H](C)C(=O)O[C@@H]3O[C@@]4(C)CC[C@@H]1[C@]32OO4` returned a solubility (mole fraction) (in ethanol, 278.2 K) of 0.000998; a solubility (mole fraction) (in ethanol, 286.2 K) of 0.00181; a solubility (mole fraction) (in ethanol, 303.2 K) of 0.00297; a solubility (mole fraction) (in ethanol, 313.2 K) of 0.00457; a solubility (mole fraction) (in ethanol, 323.2 K) of 0.00801; a solubility (mole fraction) (in ethanol, 343.2 K) of 0.0159.
As for `c1ccc(-c2cnc(-c3ccc(-c4ncc(-c5ccccc5)o4)cc3)o2)cc1`, the solubility (mole fraction) (in acetone, 298.15 K) amounted to 0.00013; the solubility (mole fraction) (in ethanol, 298.15 K) was determined as 8.43e-06; the solubility (mole fraction) (in water, 298.15 K) came to 7.3e-10.
Consider `O=C1N2CN3C(=O)N4CN5C(=O)N6CN7C(=O)N8CN9C(=O)N%10CN%11C(=O)N%12CN1C1C2N2CN%13C(=O)N(CN%14C(=O)N(CN%15C(=O)N(CN%16C(=O)N(CN%17C(=O)N(CN1C2=O)C%12C%11%17)C%10C9%16)C8C7%15)C6C5%14)C4C3%13` (centres undefined), for which the solubility (mole fraction) was found to be 0.00231 (in water, 293.15 K); 0.0027 (in water, 303.15 K); 0.00336 (in water, 313.15 K); 0.00403 (in water, 323.15 K); 0.00481 (in water, 333.15 K); 0.00573 (in water, 343.15 K). The compound further showed a solubility (mole fraction) (in water, 353.15 K) of 0.00662.
Turning to `Oc1cc(O)c2cc1Cc1cc(c(O)cc1O)Cc1cc(c(O)cc1O)Cc1cc(c(O)cc1O)C2`, the solubility (mole fraction) was found to be 3.22e-06 (in water, 278.15 K); 4.29e-06 (in water, 283.15 K); 4.86e-06 (in water, 288.15 K); 6.26e-06 (in water, 293.15 K); 6.59e-06 (in water, 298.15 K); 7.16e-06 (in water, 303.15 K). Also, under “in water, 308.15 K”, the solubility (mole fraction) was 7.68e-06.
In turn, `CCC(C)C` returned a solubility (mole fraction) (in water, 293.2 K) of 1.24e-05.
Regarding `O=C(O)c1ccc(C(=O)O)c(C(=O)O)c1`, the solubility (mole fraction) (in acetic acid, 313.2 K) is 0.00168; the solubility (mole fraction) (in acetic acid, 323.2 K) is 0.00311; the solubility (mole fraction) (in acetic acid, 333.2 K) worked out at 0.0048; the solubility (mole fraction) (in acetic acid, 343.2 K) stood at 0.00676; the solubility (mole fraction) (in acetic acid, 353.2 K) came to 0.0087; the solubility (mole fraction) (in acetic acid, 363.2 K) is 0.0106.
Take `Nc1cc(Cl)nnc1Cl`: the solubility (mole fraction) by setting is: (in ethanol, 303.15 K) 0.0171; (in ethanol, 305.65 K) 0.0179; (in ethanol, 308.15 K) 0.0185; (in ethanol, 310.65 K) 0.0192; (in ethanol, 313.15 K) 0.0202; (in ethanol, 315.65 K) 0.0212. For the same compound, the solubility (mole fraction) worked out at 0.022 (in ethanol, 318.15 K); 0.023 (in ethanol, 320.65 K); 0.024 (in ethanol, 323.15 K).
